Counter-ions that a name gives are not always drawn.
How the values were obtained:
AChE [1] = biological target: T1, AChE (Homo sapiens, UniProt P22303); assay: biochemical; details: for IC50: Ellman's method, triplicate, read-out: IC50 (µM) AChE; for SI BChE/AChE: Selectivity index IC50 (BChE)/IC50 (AChE)
T1 construct: purchased BL, purchased through BIOCOM Africa (Pty) Ltd. 768104

BChE [2] = biological target: T2, BChE (Homo sapiens, UniProt P06276); assay: biochemical; details: for IC50: Ellman's method, triplicate; for SI AChE/BChE: Selectivity index IC50 (AChE)/IC50 (BChE)
T2 construct: purchased cloud-clone corp., purchased through BIOCOM Africa (Pty) Ltd. RPC348Hu0 2_100
Procedure: The mixtures were incubated for 15 min at RT. The reaction was initiated by adding of 10 µL of mixture solution of 5 mM 5,50-dithio-bis-nitrobenzoic acid (DTNB) in 50 mM tris buffer (pH 7.7) and 10 µL acetylthiocholine (ASCh; 5 mM) in 50 mM tris buffer, pH 7.7 into the wells containing the mixtures. The hydrolysis of ASCh was determined by monitoring the formation of the yellow 5-thio-2-nitrobenzoate anion resulting from reaction of DTNB with thiocholines (SCh).
The IC50 values were determined graphically from inhibition curves (inhibitor concentration and absorbance) using the graph pad prism.

[3] = DPPH radical scavenging activity assay; details: triplicate, preliminary
Procedure: DPPH radical scavenging activity of compounds 2b, 2f, 3b, 3d and 3f was evaluated following the literature method. Ascorbic acid (Sigma Aldrich, Saint Louis, Missouri, USA) was used as a positive control. The test compounds and controls at various concentrations ranging from (0 µM to 40 µM) in DMSO were mixed with a solution of DPPH (0.20 mM) in methanol. The mixtures were incubated in the dark for 45 min and the absorbances were recorded at 512 nm using Varioskan flash microplate spectrophotometer reader. All tests and analyses were run in triplicate and averaged. The inhibition was calculated in terms of percentage using the formula below:(5) DPPH radical scavenged (%)=AbC−AbS/AbC×100, where AbC is absorbance of control and AbS the absorbance of the test sample.

BChE [4] = biological target: T2, BChE; assay: Kinetic studies against BChE (Lineweaver–Burk and Dixon plots); format: biochemical; details: for Ki: Dixon plots; for mode of inhibition against BChE: Lineweaver–Burk and Dixon plots
Procedure: (§1) Compounds 2f, 2b, 2f, 3b, 3d and 3f were selected for the kinetic studies with substrate concentrations 0.1, 0.5, 2. 5 and 5 µM for ChEs following procedures described in our previous investigation. The Lineweaver–Burk plots (plots of the inverse of velocity (1/v) against the inverse of the substrate concentration (1/[S])) were used to ascertain the mode of inhibition of these compounds.

human recombinant BACE-1 = biological target: T3, human recombinant BACE-1 (Homo sapiens, UniProt P56817); assay: β-secretase FRET inhibitory assay; format: biochemical; details: triplicate
T3 construct: purchased Pan Vera; host or cells: baculovirus-expressed

AChE [5] = biological target: T1, AChE; assay: Kinetic studies against AChE (Lineweaver–Burk and Dixon plots); format: biochemical; details: for Ki: Dixon plots; for mode of inhibition against AChE: Lineweaver–Burk and Dixon plots
Procedure: as §1

[6] = system: breast cancer cell line MCF-7; assay: MTT cytotoxicity assay, MCF-7; format: cell-based; details: Homo sapiens, MCF7, 24 h, read-out: IC50 against MCF-7 cancer cell line
Procedure: Briefly, the cells were seeded in 96-well plate at a density of 20 × 10^3 cells per well and then incubated at 37 °C in 5% CO2 to allow cell attachment. […] An equal volume of medium was used as the control treatment. After treatment for 24 h, 10 μL MTT (5 mg/mL) was added to each well and the plate was further incubated for 4 h later. The supernatant was removed and 100 μL of DMSO was added to each well to dissolve the resulting formazan crystals. The absorbance was read at 570 nm using the Varioskan flash microplate spectrophotometer reader. The percentages of cell viability were used to determine the IC50 values.

T1 sequence (P22303 32-614): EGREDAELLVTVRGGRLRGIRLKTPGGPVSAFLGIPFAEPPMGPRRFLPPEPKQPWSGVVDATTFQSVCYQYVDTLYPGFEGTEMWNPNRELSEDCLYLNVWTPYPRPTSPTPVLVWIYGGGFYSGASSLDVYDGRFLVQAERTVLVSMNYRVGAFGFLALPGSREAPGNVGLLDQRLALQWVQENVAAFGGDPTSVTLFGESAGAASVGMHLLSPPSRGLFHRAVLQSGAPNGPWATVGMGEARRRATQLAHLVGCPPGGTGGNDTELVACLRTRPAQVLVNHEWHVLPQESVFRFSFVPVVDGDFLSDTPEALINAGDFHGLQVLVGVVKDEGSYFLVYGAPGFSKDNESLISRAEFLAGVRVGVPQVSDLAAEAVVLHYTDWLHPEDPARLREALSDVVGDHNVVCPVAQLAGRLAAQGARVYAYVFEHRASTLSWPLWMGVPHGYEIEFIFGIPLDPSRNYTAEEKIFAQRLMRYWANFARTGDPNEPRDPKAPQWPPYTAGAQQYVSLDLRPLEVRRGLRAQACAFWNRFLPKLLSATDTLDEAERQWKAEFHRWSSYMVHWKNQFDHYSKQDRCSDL
T2 sequence (P06276 29-602): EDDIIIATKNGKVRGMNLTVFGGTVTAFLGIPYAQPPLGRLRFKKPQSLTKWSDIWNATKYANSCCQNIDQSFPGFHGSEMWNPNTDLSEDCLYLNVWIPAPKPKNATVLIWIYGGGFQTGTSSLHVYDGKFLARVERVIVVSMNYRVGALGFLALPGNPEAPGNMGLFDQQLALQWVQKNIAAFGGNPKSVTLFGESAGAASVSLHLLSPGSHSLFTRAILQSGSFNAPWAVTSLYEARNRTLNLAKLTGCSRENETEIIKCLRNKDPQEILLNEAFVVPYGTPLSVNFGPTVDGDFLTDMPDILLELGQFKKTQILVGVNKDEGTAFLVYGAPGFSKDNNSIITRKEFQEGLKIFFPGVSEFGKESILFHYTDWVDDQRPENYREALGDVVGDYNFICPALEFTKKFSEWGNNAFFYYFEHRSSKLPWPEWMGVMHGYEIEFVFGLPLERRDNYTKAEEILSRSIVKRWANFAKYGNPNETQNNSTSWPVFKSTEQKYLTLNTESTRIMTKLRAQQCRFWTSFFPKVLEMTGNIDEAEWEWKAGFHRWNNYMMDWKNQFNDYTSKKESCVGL
T3 sequence (P56817 46-501): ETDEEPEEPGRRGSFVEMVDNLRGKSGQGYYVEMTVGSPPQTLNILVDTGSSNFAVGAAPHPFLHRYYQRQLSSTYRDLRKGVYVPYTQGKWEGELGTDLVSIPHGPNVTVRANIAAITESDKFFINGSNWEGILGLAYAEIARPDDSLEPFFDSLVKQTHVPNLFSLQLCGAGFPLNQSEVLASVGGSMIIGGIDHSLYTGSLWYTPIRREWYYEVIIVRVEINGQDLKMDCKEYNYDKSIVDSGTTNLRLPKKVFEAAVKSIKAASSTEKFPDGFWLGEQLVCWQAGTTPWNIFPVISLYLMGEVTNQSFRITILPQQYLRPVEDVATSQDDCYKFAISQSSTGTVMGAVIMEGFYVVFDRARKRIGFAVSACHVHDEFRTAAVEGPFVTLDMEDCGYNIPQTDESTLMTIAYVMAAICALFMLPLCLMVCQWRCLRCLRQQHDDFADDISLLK

SMILES | IC50 (AChE [1]) [µM] | SI BChE/AChE (AChE [1]) | IC50 (BChE [2]) [µM] | SI AChE/BChE (BChE [2]) | IC50 [3] [µM] | Ki (BChE [4]) [µM] | mode of inhibition against BChE (BChE [4]) | IC50 (human recombinant BACE-1) [µM] | Ki (AChE [5]) [µM] | mode of inhibition against AChE (AChE [5]) | Vmax against BChE (BChE [4]; Lineweaver–Burk plots, substrate 0–5 µM) | IC50 [6] [µM]
COc1cc(OC)cc(-c2cc3cc4c(=O)c(C=O)coc4cc3o2)c1 [Compound 2g, 2-(3,5-Dimethoxyphenyl)-5-oxo-5H-furo[3,2-g]chromene-6-carbaldehyde] | 10.8 ± 0.02 | 3.81 | 41.2 ± 0.03 | 0.26 | – | – | – | – | – | – | – | –
O=Cc1coc2cc3oc(-c4cccc(F)c4)cc3cc2c1=O [Compound 2b, 2-(3-Fluorophenyl)-5-oxo-5H-furo[3,2-g]chromene-6-carbaldehyde] | 5.4 ± 0.05 | 1.19 | 6.4 ± 0.04 | 0.84 | 7.4 ± 0.01 | 1.7 ± 0.01 | non-competitive | 21.6 ± 0.01 | 1.1 ± 0.02 | non-competitive | – | –
Cc1ccc(-c2cc3cc4c(=O)c(C=NNc5ccc(C(F)(F)F)cc5)coc4cc3o2)cc1 [Compound 3h, 2-(4-p-Tolyl)-6-[(4-trifluoromethylphenyl)hydrazonomethyl]furo[3,2-g]chromen-5-one] | 10.5 ± 0.03 | 3.37 | 35.4 ± 0.015 | 0.30 | – | – | – | – | – | – | – | –
O=Cc1coc2cc3oc(-c4ccc(F)cc4)cc3cc2c1=O [Compound 2c, 2-(4-Fluorophenyl)-5-oxo-5H-furo[3,2-g]chromene-6-carbaldehyde] | 15.3 ± 0.01 | 1.03 | 15.7 ± 0.02 | 0.97 | – | – | – | – | – | – | – | –
COc1ccc(-c2cc3cc4c(=O)c(C=NNc5ccc(C(F)(F)F)cc5)coc4cc3o2)cc1 [Compound 3f, 2-(4-Methoxyphenyl)-6-[(4-trifluoromethylphenyl)hydrazonomethyl]furo[3,2-g]chromen-5-one] | 5.4 ± 0.02 | 1.78 | 9.6 ± 0.05 | 0.56 | 23.9 ± 0.04 | 5.4 ± 0.04 | competitive | 25.3 ± 0.04 | 8.16 ± 0.02 | non-competitive | 0.013 ± 0.02 | –
O=Cc1coc2cc3oc(-c4ccc(Cl)cc4)cc3cc2c1=O [Compound 2e, 2-(4-Chlorophenyl)-5-oxo-5H-furo[3,2-g]chromene-6-carbaldehyde] | 21.8 ± 0.03 | – | 14 ± 0.04 | 1.61 | – | – | – | – | – | – | – | –
O=c1c(C=NNc2ccc(C(F)(F)F)cc2)coc2cc3oc(-c4cccc(F)c4)cc3cc12 [Compound 3b, 2-(3-Fluorophenyl)-6-[(4-trifluoromethylphenyl)hydrazonomethyl]furo[3,2-g]chromen-5-one] | 7.6 ± 0.03 | 1.47 | 11.2 ± 0.02 | 0.68 | 21.8 ± 0.02 | 6.1 ± 0.02 | non-competitive | 17.3 ± 0.03 | 0.58 ± 0.04 | non-competitive | – | –
COc1cccc2c1C(=O)c1c(O)c3c(c(O)c1C2=O)C[C@@](O)(C(=O)CO)C[C@@H]3O[C@H]1C[C@H](N)[C@H](O)[C@H](C)O1 [doxorubicin, doxorubicin hydrochloride, reference compound] | – | – | – | – | – | – | – | – | – | – | – | 1.59 ± 0.01
O=c1c(C=NNc2ccc(C(F)(F)F)cc2)coc2cc3oc(C4=CCCCC4)cc3cc12 [Compound 3i, 2-(Cyclohex-1-en-1-yl)-6-((2-(4-(trifluoromethyl)phenyl)hydrazono)methyl)-5H-furo[3,2-g]chromen-5-one] | 29.8 ± 0.01 | 1.04 | 30.9 ± 0.02 | 0.96 | – | – | – | – | – | – | – | –
O=Cc1coc2cc3oc(C4=CCCCC4)cc3cc2c1=O [Compound 2i, 2-(Cyclohex-1-en-1-yl)-5-oxo-5H-furo[3,2-g]chromene-6-carbaldehyde] | 22.6 ± 0.03 | 1.54 | 34.8 ± 0.02 | 0.65 | – | – | – | – | – | – | – | –
O=c1c(C=NNc2ccc(C(F)(F)F)cc2)coc2cc3oc(-c4cccc(Cl)c4)cc3cc12 [Compound 3d, 2-(3-Chlorophenyl)-6-[(4-trifluoromethylphenyl)hydrazonomethyl]furo[3,2-g]chromen-5-one] | 18.3 ± 0.04 | 0.39 | 7.2 ± 0.03 | 2.56 | 20.9 ± 0.03 | 0.85 ± 0.01 | non-competitive | 32.8 ± 0.02 | 2.5 ± 0.01 | non-competitive | – | –
COc1cc(OC)cc(-c2cc3cc4c(=O)c(C=NNc5ccc(C(F)(F)F)cc5)coc4cc3o2)c1 [Compound 3g, 2-(3,5-Dimethoxyphenyl)-6-[(4-trifluoromethylphenyl)hydrazonomethyl]furo[3,2-g]chromen-5-one] | 34.9 ± 0.01 | 0.89 | 31.2 ± 0.04 | 1.12 | – | – | – | – | – | – | – | –
O=Cc1coc2cc3oc(-c4ccccc4)cc3cc2c1=O [Compound 2a, 5-Oxo-2-phenyl-5H-furo[3,2-g]chromene-6-carbaldehyde] | 28.6 ± 0.01 | 0.43 | 12.3 ± 0.02 | 2.33 | – | – | – | – | – | – | – | –
O=Cc1coc2cc3oc(-c4cccc(Cl)c4)cc3cc2c1=O [Compound 2d, 2-(3-Chlorophenyl)-5-oxo-5H-furo[3,2-g]chromene-6-carbaldehyde] | 33.4 ± 0.03 | 0.65 | 21.6 ± 0.01 | 1.54 | – | – | – | – | – | – | – | –
O=c1c(C=NNc2ccc(C(F)(F)F)cc2)coc2cc3oc(-c4ccc(Cl)cc4)cc3cc12 [Compound 3e, 2-(4-Chlorophenyl)-6-[(4-trifluoromethylphenyl)hydrazonomethyl]furo[3,2-g]chromen-5-one] | 12.9 ± 0.02 | 1.91 | 24.6 ± 0.02 | 0.52 | – | – | – | – | – | – | – | –
O=c1c(C=NNc2ccc(C(F)(F)F)cc2)coc2cc3oc(-c4ccc(F)cc4)cc3cc12 [Compound 3c, 2-(4-Fluorophenyl)-6-[(4-trifluoromethylphenyl)hydrazonomethyl]furo[3,2-g]chromen-5-one] | 21.2 ± 0.01 | 0.67 | 14.1 ± 0.01 | 1.49 | – | – | – | – | – | – | – | –
Cc1ccc(-c2cc3cc4c(=O)c(C=O)coc4cc3o2)cc1 [Compound 2h, 5-Oxo-2-(p-tolyl)-5H-furo[3,2-g]chromene-6-carbaldehyde] | 12.9 ± 0.01 | 2.18 | 28.1 ± 0.03 | 0.46 | – | – | – | – | – | – | – | –
O=c1c(C=NNc2ccc(C(F)(F)F)cc2)coc2cc3oc(-c4ccccc4)cc3cc12 [Compound 3a, 2-Phenyl-6-[(4-trifluoromethylphenyl)hydrazonomethyl]furo[3,2-g]chromen-5-one] | 18.4 ± 0.01 | 1.43 | 26.3 ± 0.02 | 0.70 | – | – | – | – | – | – | – | –
O=C1O[C@H]([C@@H](O)CO)C(O)=C1O [Ascorbic acid, reference compound] | – | – | – | – | 4.8 ± 0.01 | – | – | – | – | – | – | –

From paper PMC6862662, “In Vitro Evaluation and Docking Studies of 5-oxo-5H-furo[3,2-g]chromene-6-carbaldehyde Derivatives as Potential Anti-Alzheimer’s Agents” (International Journal of Molecular Sciences, 2019)
